Format in all cases: biochemical, Amaranthus tuberculatum
Test [1] deals with T1, wild type and amino acid substituted PPO enzyme (PPO2) of SEQ ID NO: 2 (AMARE) (Amaranthus tuberculatus, UniProt Q0NZW9, R128I/F420M, form not given).
T1 sequence (Q0NZW9 1-534 R128I/F420M): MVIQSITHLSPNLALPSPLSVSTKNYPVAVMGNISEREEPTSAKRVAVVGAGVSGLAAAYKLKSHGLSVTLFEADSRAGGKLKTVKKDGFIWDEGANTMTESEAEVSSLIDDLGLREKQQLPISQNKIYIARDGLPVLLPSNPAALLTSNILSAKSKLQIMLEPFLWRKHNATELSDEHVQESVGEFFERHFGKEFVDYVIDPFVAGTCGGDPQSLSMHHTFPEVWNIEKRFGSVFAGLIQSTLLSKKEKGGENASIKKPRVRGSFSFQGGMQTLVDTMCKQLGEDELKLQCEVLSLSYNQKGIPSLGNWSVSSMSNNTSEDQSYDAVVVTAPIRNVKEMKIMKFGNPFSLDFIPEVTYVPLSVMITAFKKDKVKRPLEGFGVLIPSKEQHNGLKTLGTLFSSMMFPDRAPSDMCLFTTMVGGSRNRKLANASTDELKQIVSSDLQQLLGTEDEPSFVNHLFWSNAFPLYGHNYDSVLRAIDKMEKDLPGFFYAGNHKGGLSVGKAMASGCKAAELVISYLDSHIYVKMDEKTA

The target in test [2] is T2, wild type and amino acid substituted PPO enzyme (PPO2) of SEQ ID NO: 2 (AMARE) (Amaranthus tuberculatus, UniProt Q0NZW9, R128T/F420M, form not given).
T2 sequence (Q0NZW9 1-534 R128T/F420M): T1 sequence (Q0NZW9 1-534 R128I/F420M) with I128T

The target in test [3] is T3, wild type and amino acid substituted PPO enzyme (PPO2) of SEQ ID NO: 2 (AMARE) (Amaranthus tuberculatus, UniProt Q0NZW9, R128N/F420M, form not given).
T3 sequence (Q0NZW9 1-534 R128N/F420M): T1 sequence (Q0NZW9 1-534 R128I/F420M) with I128N

The target in test [4] is T4, wild type and amino acid substituted PPO enzyme (PPO2) of SEQ ID NO: 2 (AMARE) (Amaranthus tuberculatus, UniProt Q0NZW9, R128Y/F420M, form not given).
T4 sequence (Q0NZW9 1-534 R128Y/F420M): T1 sequence (Q0NZW9 1-534 R128I/F420M) with I128Y

Changes are numbered by the printed parent chain. Where “and” joins values, the source holds several entries; their conditions need not be identical. Equal values may be shown once. Read-outs that look alike come from different tables or passages of the source. Where only a bound is given, the exact number is not on record here.

On to `CCOCCOC(=O)C(OC)Oc1ccccc1Oc1cc(-n2c(=O)cc(C(F)(F)F)n(C)c2=O)c(F)cc1Cl` (stereo not shown), for which the concentration for half-maximal inhibition (IC50) was 13.9 nM in test [1] and 29.3 nM in test [2].

As for `COC(Oc1ccccc1Oc1cc(-n2c(=O)cc(C(F)(F)F)n(C)c2=O)c(F)cc1Cl)C(=O)OCC(F)F` (stereo not shown), the IC50 in test [1] was 46.1 nM; in test [2] it was 150 nM.

For `COC(Oc1ccccc1Oc1cc(-n2c(=O)cc(C(F)(F)F)n(C)c2=O)c(F)cc1Cl)C(=O)OCc1ccncc1` (stereo not shown), the half-maximal inhibitory concentration (IC50) in test [1] is 15.6 nM; in test [2], 58.8 nM.

In the case of `COC(Oc1ccccc1Oc1cc(-n2c(=O)cc(C(F)(F)F)n(C)c2=O)c(F)cc1Cl)C(=O)OCC1(C)CC1` (stereo not shown), the results for the IC50 in test [1] and in test [2] were 13.7 nM and 57.7 nM, respectively.

Regarding `COC(Oc1ccccc1Oc1cc(-n2c(=O)cc(C(F)(F)F)n(C)c2=O)c(F)cc1Cl)C(=O)OC1CCCCC1` (stereo not shown), the 50% inhibitory concentration (IC50) in test [1] amounted to 10.6 nM; in test [2] it was 117 nM.

Consider `COC(=O)C(OC)Oc1ccccc1Oc1cc(-n2c(=O)cc(C(F)(F)F)n(C)c2=O)c(F)cc1Cl` (stereo not shown), for which the values for the IC50 in test [1] and in test [2] were 11.5 nM and 27.9 nM, respectively.

Turning to `CCOC(=O)COc1ncccc1Oc1cc(-n2c(=O)cc(C(F)(F)F)n(C)c2=O)c(F)cc1Cl` [A.13, ethyl [3-[2-chloro-4-fluoro-5-(1-methyl-6-trifluoromethyl-2,4-dioxo-1,2,3,4-tetrahydropyrimidin-3-yl)phenoxy]-2-pyridyloxy]acetate, reference compound], the IC50 in test [3] was 192 nM; in test [4], 89.2 nM.

`O=C(O)c1cc(Oc2ccc(C(F)(F)F)cc2Cl)ccc1[N+](=O)[O-]` [ACIFLUORFEN] yielded a half-inhibitory concentration (IC50) in test [4] not below 10000 nM.

In the case of `C#CCN1C(=O)C(F)(F)Oc2cc(F)c(-n3c(=O)n(C)c(=S)n(C)c3=O)cc21` [BAS 850H], the half-maximal inhibitory concentration (IC50) in test [3] is 71.2 nM and 49.7 nM.

Consider `C=CCOC(=O)C(C)(C)OC(=O)c1cc(-n2c(=O)cc(C(F)(F)F)n(C)c2=O)ccc1Cl` [BUTAFENACIL], for which the IC50 in test [3] is 28.4 nM; in test [4], 50.4 nM.

On to `CCOC(=O)C(Cl)Cc1cc(-n2nc(C)n(C(F)F)c2=O)c(F)cc1Cl` (stereo not shown) [CARFENTRAZONE-ETHYL], for which the IC50 amounted to 188 nM in test [3] and 85.2 nM in test [4].

With `CCOC(=O)/C(Cl)=C/c1cc(N2C(=O)C3=C(CCCC3)C2=O)ccc1Cl` [CINIDON-ETHYL], the results for the IC50 in test [3] (read-out: IC50) and in test [4] (read-out: IC50) were not below 10000 nM and 10800 nM, respectively.

For the compound `C#CCN1C(=O)COc2cc(F)c(N3C(=O)C4=C(CCCC4)C3=O)cc21` [FLUMIOXAZIN], the IC50 in test [3] was 6150 nM; in test [4], not below 10000 nM. In addition, in test [4], the “inhibition (%) at 1 × 10−5M” value is −2%.

In the case of `CS(=O)(=O)NC(=O)c1cc(Oc2ccc(C(F)(F)F)cc2Cl)ccc1[N+](=O)[O-]` [FOMESAFEN], the IC50 is 10700 nM in test [3] and not below 10000 nM in test [4]. The “inhibition (%) at 1 × 10−5M” value in test [4] is 28%.

Consider `CCOC(=O)C(C)OC(=O)c1cc(Oc2ccc(C(F)(F)F)cc2Cl)ccc1[N+](=O)[O-]` (stereo not shown) [LACTOFEN], for which the IC50 in test [3] amounted to 167 nM; in test [4] it was 143 nM.

For the compound `CCOc1cc(Oc2ccc(C(F)(F)F)cc2Cl)ccc1[N+](=O)[O-]` [OXIFLUORFEN], the values for the IC50 in test [3] and in test [4] were 391 nM and 1130 nM, respectively.

As for OXADIARGYL, the values for the IC50 in test [3] (read-out: IC50) and in test [4] (read-out: IC50) were 128 nM and 36 nM, respectively.

The values are drawn from patent US10968462B2, “Plants having increased tolerance to herbicides” (BASF AGRO B.V., priority 2013, dated 2021).
